For one data set, the target named is H3R (Homo sapiens, UniProt Q9Y5N1). The data set can be described thus: CRE luciferase reporter assay for H3R antagonistic activity. The format is cell-based. As to the method:
Firstly, all the target compounds were screened at 5 μM and 50 μM. […] The detailed experimental operations refer to the previous paper.
Background: Reporter assays use an easily measured gene product as a stand-in for the process of interest.

A short description of data set [1]: Rotarod test for neurotoxicity. The format is in vivo. The following applies: mice; for Death of treated animals: 300 mg/kg; for Neurotoxicity: rotarod test, i.p., three animals per group. Here is the method:
A rotarod test was carried out to estimate the neurological safety of compounds 2h, 4a, and 4b.
(§1) The neurological safety of the compounds 2h, 4a, and 4b was evaluated by the rotarod test. In the MES test, the definition of protection was the reduction or vanishing of the THLE in mice. In the PTZ test, the seizures were induced through the subcutaneous administration of PTZ (85 mg/kg). The antiseizure activities of the compounds in the PTZ test were evaluated by comparing the convulsion scores in mice between taking the compounds or not. VPA and PIT were used as positive drugs. To explore the anticonvulsive mechanism, compound 4a (10 mg/kg) was co-injected with RAMH (10 mg/kg). In addition, the THLE was recorded and compared with that of the mice treated by compound 4a alone. The detailed experimental operations in the MES, PTZ, and rotarod tests refer to our previous paper. All the animal experiments were carried out on 4-week-old KunMing male mice weighing from 20 to 25 g. The mice were housed collectively in polycarbonate cages in groups of 30, where they were maintained on a 12 h light/dark cycle in a temperature controlled (25 ± 2 °C) laboratory with free access to food and water. In the MES and PTZ models, seven animals were used in each group. In the rotarod test, three animals were used in each group. Each animal was used only once. All the experiments referring to animals were applied according to the Guide for the Care and Use of Laboratory Animals and were approved by the Medical Ethics Committee of Jinggangshan University, approval number: 220811002.
A general note: Falling from the rotarod earlier than controls is read as motor impairment.

In data set [2] the test system is maximal electroshock seizure (MES) model. The data set can be described thus: Maximal electroshock seizure (MES) model. The format is in vivo. As to conditions: mice; for Protection in MES model at lowest dosage: 3 mg/kg, compared to control (saline); for Duration of tonic hind limb extension (THLE), protection in MES model: 10 mg/kg, i.p., compared to control group; for Dose dependence of protection in MES model: doses of 3, 10 and 30 mg/kg. As to the method:
as §1, with “One of the two test models is the MES seizure model, another is the PTZ-induced seizure model. […] In addition, the administration of this dosage can minimize the impact of other possible side effects such as central inhibition and cardiac toxicity. […] In addition, the tested dose of VPA was 300 mg/kg. It could be seen that all animals in the control group experienced hindlimb stiffness after the electrical stimulation in the MES model. In the treated group, the definition of protection was the reduction or vanishing of the tonic hind limb extension (THLE) in mice. […] The neurological” for “The neurological”
Background: Protection in the maximal electroshock model is a classic sign of anticonvulsant action.

Several values for one entry are separate records, joined by “and”; a condition that tells them apart may be missing. Equal values may be shown once. Entries after “also recorded” stand apart in the source; their conditions may differ. Bounds are passed on as bounds.

A word on the IC50: it is the point on the concentration scale where inhibition reaches its midpoint. A high value points to lower potency. Broadly, the melting point is the temperature of the solid-liquid transition.

Chain of H3R (Q9Y5N1 whole entry, species assumed): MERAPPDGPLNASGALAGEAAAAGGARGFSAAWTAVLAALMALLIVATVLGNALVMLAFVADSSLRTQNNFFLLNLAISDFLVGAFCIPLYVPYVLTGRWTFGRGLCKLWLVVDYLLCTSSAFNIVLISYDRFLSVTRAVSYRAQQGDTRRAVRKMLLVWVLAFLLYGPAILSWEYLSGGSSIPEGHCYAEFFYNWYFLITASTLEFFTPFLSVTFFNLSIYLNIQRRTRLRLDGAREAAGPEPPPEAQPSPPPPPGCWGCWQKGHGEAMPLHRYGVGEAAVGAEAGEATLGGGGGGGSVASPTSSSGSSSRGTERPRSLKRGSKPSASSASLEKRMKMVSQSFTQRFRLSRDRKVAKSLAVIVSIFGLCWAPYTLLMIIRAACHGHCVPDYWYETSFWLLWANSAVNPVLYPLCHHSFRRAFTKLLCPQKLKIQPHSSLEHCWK

`O=C1CCc2cc(OCCCCN3CCCCC3)ccc2N1` [Compound 3b, 6-(4-(Piperidin-1-yl)butoxy)-3,4-dihydroquinolin-2(1H)-one] yielded a melting point of 150 to 151 °C. Also, the half-inhibitory concentration (IC50) at H3R worked out at 2.88 µM.
Take `CCCN1C(=O)CCc2cc(OCCCN3CCCCC3)ccc21` [Compound 4a, 6-(3-(Piperidin-1-yl)propoxy)-1-propyl-3,4-dihydroquinolin-2(1H)-one]: the “Death of treated animals” value in data set [1] was “two-thirds of mice”. For the same compound, the Neurotoxicity is 0/3 in data set [1] (10 mg/kg); 0/3 in data set [1] (30 mg/kg); “no neurotoxicity and 0/3” in data set [1] (100 mg/kg, 100 mg/kg). The midpoint of inhibition against H3R, the IC50, lay at 0.37 µM. Also, the “Protection in MES model at lowest dosage” value in data set [2] was “no significant difference”. Further, in data set [2] (10 mg/kg i.p., co-injected with RAMH 10 mg/kg i.p.), the “Duration of THLE in MES model when combined with H3R agonist RAMH” value is “fully vanished; also recorded: cannot decrease the duration of THLE”. The “Duration of tonic hind limb extension (THLE), protection in MES model” value (“Duration of tonic hind limb extension” for short) in data set [2] is on record as “decreased the duration of THLE significantly; also recorded: antiseizure activity”. In addition, the “Dose dependence of protection in MES model” value (from here on “Dose dependence of protection”) in data set [2] was “dose-dependent manner”.
The compound `O=C1CCc2cc(OCCCN3CCOCC3)ccc2N1` [Compound 2g, 6-(3-(Morpholino)propoxy)-3,4-dihydroquinolin-2(1H)-one] showed a melting point of 146 to 147 °C. Further, the concentration for half-maximal inhibition (IC50) against H3R worked out at 46 µM.
As to `O=C1CCc2cc(OCCCN3CCC(c4ccccc4)CC3)ccc2N1` [Compound 2i, 6-(3-(4-Phenylpiperidin-1-yl)propoxy)-3,4-dihydroquinolin-2(1H)-one], the melting point fell in the range of 174 to 176 °C. In addition, the 50% inhibitory concentration (IC50) on H3R amounted to 38.5 µM.
In the case of `CCCN(CCC)CCCOc1ccc2c(c1)CCC(=O)N2.Cl` [Compound 2b, 6-(3-(Dipropylamino)propoxy)-3,4-dihydroquinolin-2(1H)-one hydrochloride], the melting point lay within 57 to 59 °C. This compound gave a concentration for half-maximal inhibition (IC50) against H3R of more than 50 µM.
`CCCCCN1C(=O)CCc2cc(OCCCN3CCCCC3)ccc21` [Compound 4b, 1-Pentyl-6-(3-(piperidin-1-yl)propoxy)-3,4-dihydroquinolin-2(1H)-one]: the “Death of treated animals” value in data set [1] is given as “two-thirds of mice”. Moreover, the Neurotoxicity in data set [1] (10 mg/kg) is on record as 0/3. Besides, in data set [1] (30 mg/kg), the Neurotoxicity was 0/3. Further, the Neurotoxicity entry in data set [1] (100 mg/kg, 100 mg/kg) is “no neurotoxicity and 0/3”. Besides, the 50% inhibitory concentration (IC50) against H3R was 1.91 µM. In addition, in data set [2], the “Protection in MES model at lowest dosage” value is “no significant difference”; the “Duration of tonic hind limb extension” value is “decreased the duration of THLE significantly; also recorded: antiseizure activity”; the “Dose dependence of protection” value is on record as “dose-dependent manner”.
As for `CN1CCN(CCCOc2ccc3c(c2)CCC(=O)N3)CC1` [Compound 2e, 6-(3-(4-Methylpiperazin-1-yl)propoxy)-3,4-dihydroquinolin-2(1H)-one], the melting point was 159 to 160 °C. This compound also registered an IC50 against H3R of 38.1 µM.
In the same order, the values of `O=C1CCc2cc(OCCN3CCCCC3)ccc2N1` [Compound 3a, 6-(2-(Piperidin-1-yl)ethoxy)-3,4-dihydroquinolin-2(1H)-one] are 147 to 149 °C and 7.49 µM.
Take `O=C1CCc2cc(OCCCCCN3CCCCC3)ccc2N1` [Compound 3c, 6-((5-(Piperidin-1-yl)pentyl)oxy)-3,4-dihydroquinolin-2(1H)-one]: the melting point was in the range of 150 to 151 °C. In addition, the IC50 on H3R was more than 50 µM.
As for `O=C1CCc2cc(OCCCN3CCCCC3)ccc2N1` [Compound 2h, 6-(3-(Piperidin-1-yl)propoxy)-3,4-dihydroquinolin-2(1H)-one], the “Death of treated animals” value in data set [1] is “all animals”. Moreover, the Neurotoxicity in data set [1] (10 mg/kg) is recorded as 0/3. For the same compound, the Neurotoxicity in data set [1] (30 mg/kg) is given as 0/3. Besides, the Neurotoxicity result in data set [1] (100 mg/kg, 100 mg/kg) is “one mouse in three and 1/3”. At H3R, this compound had an IC50 of 0.12 µM. Besides, in data set [2], the “Protection in MES model at lowest dosage” value is “no significant difference”; the “Duration of tonic hind limb extension” value was “decreased the duration of THLE significantly; also recorded: antiseizure activity”; the “Dose dependence of protection” value is “dose-dependent manner”.
